Values joined by “and” are separate entries in the source; they are usually repeats but may differ in a detail not shown here. Equal values may be shown once.

The values that follow come from patent US20110111976A1, “MICRORNA BIOMARKERS OF TISSUE INJURY” (priority 2008, published 2011).

Series [1] has as its system Sprague-Dawley rats. The series is described as follows: Pooled sample study: miR-122 in blood plasma of toxicant-treated rats by qPCR. The conditions noted are these: pooled rat plasma (5 samples), cerivastatin 1.0 mg/kg/day oral Day 14, CBrCl3 0.1 ml/kg oral Days 2 & 4, TMPD 6 mg/kg bid s.c. Day 3. Type of series: in vivo. As for the experimental part:
(§1) To explore the feasibility of detecting miRNA tissue injury biomarkers in plasma, a pilot study was performed in which pooled blood plasma samples from rat toxicology studies were analyzed using a qPCR-based assay (Raymond et at, 2005, RNA 11:1737; WO 2006/081282). The miRNAs miR-122 and miR-133 were chosen for quantification because they are extremely abundant and specific to liver and muscle, respectively (FIG. 1). Stored plasma samples from rats that had previously been treated with a liver damaging agent trichlorobromomethane (CBrCl3) or with one of two muscle damaging agents 2,3,5,6-tetramethyl-p phenylenediamine (TMPD) or cerivastatin) were assayed form miRNA levels using qPCR.
(§2) Animals Male and female Sprague-Dawley rats were obtained from Charles River Laboratories, Inc. (Raleigh, N.C.). The rats were approximately seven to eight weeks of age and weighed from 125 to 325 grams at the start of the study. The animals were acclimated for approximately one week and randomized into treatment and control groups. During the toxicity studies targeting liver, the animals were maintained on a caloric-restricted diet, and fasted overnight prior to necropsy. Doses were different for each model compound tested and were calculated based on animal body weight. For the compounds, routes of administration, dose groups, and time points, see the below compound section.
(§3) Skeletal Muscle Toxicant • 2,3,5,6-tetramethyl-p phenylenediamine (TMPD) • Doses: 6 mg/kg bid • Dosing: 0.9% NaCl by subcutaneous injection • Animals: Sprague Dawley Male Rats • Time Points Day 3, TMPD Plasma (Day 3) and Controls (5 samples, 100 ul each pooled=500 ul total).
(§4) Liver Toxicant • Trichlorbromomethane (CCl3Br) • Doses: 0.1 ml/kg • Dosing: 100% liquid paraffin by oral gavage • Animals: Sprague Dawley Male Rats • Time Point: Day 2, 4 CCl3Br Plasma (Days 2 & 4) and Controls (5 samples, 100 ul each pooled=500 ul total)
(§5) Liver and Muscle Toxicant • Cerivastatin • Doses: 1.0 mg/kg/day • Dosing: 0.5% methylcellulose by oral gavage • Animals: Sprague Dawley Female Rats • Time Point Day 14 Cerivastatin Plasma (Day 14) and Controls (5 samples, 100 ul each pooled=500 μl total)
(§6) Plasma Samples All plasma samples were collected in EDTA tubes at final necropsy from the vena cava. Samples were inverted several times, and centrifuged for 20 minutes at 2,900 RPM at 4° C. Plasma samples were removed and stored at −70° C. Pooled blood plasma samples from rat toxicology studies were analyzed using a qPCR-based assay (Raymond et al, 2005, RNA 11:1737; WO 2006/081282). Control slope and intercept values for miR-122 and miR-133 were calculated from a concentration series of each microRNA added to total yeast RNA and then analyzed using the qPCR assay for each miRNA. The slope and intercept values from the standard curve were used to calculate the amount of each respective miRNA in each sample expressed as the number of miRNA copies per 20 ng of total RNA in each sample. Cycle threshold values (Ct) for each sample were converted to miRNA copy numbers by comparison to standard curves generated using single stranded mature miRNAs and are expressed as copies/20 pg input RNA (approximately equivalent to copies/cell).
In general terms: Real-time PCR tracks product formation cycle by cycle.

The test system of series [2] is Sprague-Dawley rats. The series can be described thus: Pooled sample study: miR-133 in blood plasma of toxicant-treated rats by qPCR. The format is in vivo. Particulars: pooled rat plasma (5 samples), cerivastatin 1.0 mg/kg/day oral Day 14, CBrCl3 0.1 ml/kg oral Days 2 & 4, TMPD 6 mg/kg bid s.c. Day 3. As for the experimental part:
as §1, §2, §3, §4, §5, §6

The subject of series [3] is Sprague-Dawley rats. The series is described as follows: Individual sample study: miR-122 in blood plasma of toxicant-treated rats by qPCR. Type of series: in vivo, rat. Particulars: Day 2, plasma, individual male rats. The method, then:
(§7) To follow up on the initial results shown in Example 2, blood samples from 44 individual rats that had been treated with varying doses of CBrCl3, CCl4 (another liver toxicant), or TMPD were evaluated using qPCR of miR-122 and miR-133. In addition, data from histopathology and a panel of standard biomarkers (ALT, AST, CK, skTnI, etc.) were also available for these same individual rats and were used to compare the results from microRNA assays with the standard histopathology and protein biomarkers.
as §2
(§8) Skeletal Muscle Toxicant • 2,3,5,6-tetramethyl-p phenylenediamine (TMPD) • Doses: 2, 4 mg/kg bid • Dosing: 0.9% NaCl by subcutaneous injection • Animals: Sprague Dawley Male Rats • Time Points: TMPD Plasma (Day 2) and Controls (5 samples per group, […] pooled=500 μl total).
(§9) Liver Toxicant • Trichlorobromomethane (CCl3Br) • Doses: 0.03, 0.1 ml/kg • Dosing: 100% liquid paraffin by oral gavage • Animals: Sprague Dawley Male Rats • Time Point: CCl3Br Plasma (Days 2 & 4) and Controls (4 controls, 3 samples per group, 100 μl each) • Carbon Tetrachloride (CCl4) • Doses: 0.03, 0.1, 0.3 ml/kg • Dosing: 100% liquid paraffin by oral gavage • Animals: Sprague Dawley Male Rats • Time Point: CCl4 Plasma (Days 2) and Controls (4 samples per group, 100 μl each)
as §6, with “are expressed in Table 4 as copies/20” for “are expressed as copies/20”

Series [4] relates to Sprague-Dawley rats. The series is described as follows: Individual sample study: miR-133 in blood plasma of toxicant-treated rats by qPCR. Type of series: in vivo, rat. Particulars: Day 2, plasma, individual male rats. As for the experimental part:
as §7, §2, §8, §9
as §6, with “are expressed in Table 4 as copies/20” for “are expressed as copies/20”

In series [5] the test system is Sprague-Dawley rats. The series is described as follows: Clinical chemistry (AST, ALT, CK) in blood plasma of toxicant-treated rats. The conditions noted are these: for ALT / AST / CK: Day 2, plasma, individual male rats. Type of series: in vivo, rat. The method, then:
as §7, §2, §8, §9

Series [6] has as its system Sprague-Dawley rats. The series is described as follows: Liver histopathology scores of toxicant-treated rats. Type of series: in vivo, rat. Particulars: TMPD-treated rats. As for the experimental part: as §7, §2, §9
For series [7], the system named is Sprague-Dawley rats. The series can be described thus: Muscle histopathology (quad, soleus) of TMPD-treated rats. The format is in vivo, rat. Also noted: key: 1 = very slight; 2 = slight or small; 3 = moderate; 4 = marked; 5 = severe tissue injury. Particulars: Day 2, individual male rats. The method, then:
as §7, §2, §8

For series [8], the system named is Sprague-Dawley rats. The series is described as follows: miR-10a in urine of kidney-toxicant-treated rats by qPCR. The format is in vivo, rat. Particulars: Gentamicin 240 mg/kg/day intraperitoneal, individual male rats.
Description: as §2, with “targeting kidney,” for “targeting liver,”, “below Test Compound” for “below compound”
Urine Samples Urine samples were collected overnight on either dry or wet ice, aliquoted, and stored at −70° C. […] Urine samples were thawed on ice and about 1 milliliter (ml) of each sample placed into a tube. Each sample was placed in a room temperature speed-vac to reduce sample volume to about 200 microliters (μl). About 1 ml of trizol was added to the viscous concentrated urine solution and RNA extracted using Ambion BlycoBlue and alcohol precipitation.
Samples from rat toxicology studies were analyzed for miRNA levels using a qPCR-based assay (Raymond et al, 2005, RNA 11:1737; WO 2006/081282). Control slope and intercept values for miR-10a was calculated from a concentration series of miR-10a added to total yeast RNA and then analyzed using the qPCR assay. The slope and intercept values from the standard curve were used to calculate the amount of miR-10a in each sample expressed as the number of miRNA copies per 20 ng of total RNA in each sample. Cycle threshold values (Ct) for each sample were converted to miRNA copy numbers by comparison to a standard curve generated using single stranded mature miR-10a and are expressed in Table 7 as copies/20 pg input RNA (approximately equivalent to copies/cell).

For series [9], the system named is Sprague-Dawley rats. The series is described as follows: Kidney histopathology (proximal tubule overall tissue injury) of toxicant-treated rats. Type of series: in vivo, rat. Particulars: Gentamicin 240 mg/kg/day intraperitoneal, Day 12, individual male rats.
Description: as §2, with “targeting kidney,” for “targeting liver,”, “below Test Compound” for “below compound”

Take `Cc1c(C)c(N)c(C)c(C)c1N` [TMPD, 2,3,5,6-tetramethyl-p phenylenediamine]: in the series on Sprague-Dawley rats [1] (250 ng total RNA input), the “miR-122 Copies” value stood at 89353.3 and the “miR-122 Ct Mean” value is given as 26.2479. For the same molecule, the “miR-122 Copies/20 pg” value in the series on Sprague-Dawley rats [1] was determined as 7.1 Copies/20 pg. Besides, in the series with Sprague-Dawley rats [2] (250 ng total RNA input), the “miR-133 Copies” value is on record as 4753175 and the “miR-133 Ct Mean” value was found to be 23.7323. Moreover, the “miR-133 Copies/20 pg” value in the series on Sprague-Dawley rats [2] is listed as 380.3 Copies/20 pg. Moreover, in the series with Sprague-Dawley rats [3] (TMPD 2 mg/kg bid subcutaneous), the miR-122 was 2.6 copies/20 pg input RNA and 5.6 copies/20 pg input RNA and 7.3 copies/20 pg input RNA and 0.8 copies/20 pg input RNA and 2.2 copies/20 pg input RNA. For the same molecule, the miR-122 in the series on Sprague-Dawley rats [3] (TMPD 4 mg/kg bid subcutaneous) was 9.5 copies/20 pg input RNA and 1.8 copies/20 pg input RNA and 15.7 copies/20 pg input RNA and 11.7 copies/20 pg input RNA and 3.2 copies/20 pg input RNA. The miR-133 in the series with Sprague-Dawley rats [4] (TMPD 2 mg/kg bid subcutaneous) was 0.9 copies/20 pg input RNA and 4.3 copies/20 pg input RNA and 9.3 copies/20 pg input RNA and 1.3 copies/20 pg input RNA and 4.1 copies/20 pg input RNA. Further, the miR-133 in the series on Sprague-Dawley rats [4] (TMPD 4 mg/kg bid subcutaneous) is 19.3 copies/20 pg input RNA and 63.9 copies/20 pg input RNA and 79.3 copies/20 pg input RNA and 63.8 copies/20 pg input RNA and 16.7 copies/20 pg input RNA. Moreover, in the series with Sprague-Dawley rats [5] (TMPD 2 mg/kg bid subcutaneous), the ALT is 29 U/L and 36 U/L and 37 U/L and 27 U/L and 30 U/L; the AST is 120 U/L and 164 U/L and 203 U/L and 111 U/L and 167 U/L; the CK is 424 U/L and 695 U/L and 696 U/L and 450 U/L and 463 U/L. In the series on Sprague-Dawley rats [5] (TMPD 4 mg/kg bid subcutaneous), the ALT is 60 U/L and 133 U/L and 215 U/L and 94 U/L and 56 U/L; the AST was 357 U/L and 1250 U/L and 1740 U/L and 700 U/L and 501 U/L; the CK is 363 U/L and 767 U/L and 1252 U/L and 439 U/L and 343 U/L. Moreover, in the series with Sprague-Dawley rats [5] (rats dosed with TMPD, plasma), the ALT versus controls entry is “significantly elevated” and the AST versus controls result is “significantly elevated”. Besides, the liver histopathology result in the series with Sprague-Dawley rats [6] was “no liver histopathology has been observed”. Also, in the series on Sprague-Dawley rats [7] (TMPD 2 mg/kg bid subcutaneous), the “Muscle Histopathology Quad (Overall Damage)” value was 0 (4×) and 1; the “Muscle Histopathology Soleus (Overall Damage)” value came to 0. In the series on Sprague-Dawley rats [7] (TMPD 4 mg/kg bid subcutaneous), the “Muscle Histopathology Quad (Overall Damage)” value was 1 (3×) and 2 (2×); the “Muscle Histopathology Soleus (Overall Damage)” value is 1 (3×) and 0 (2×).

On to Gentamicin, for which the miR-10a was 11.98 copies/20 pg input RNA and 3.51 copies/20 pg input RNA and 0.03 copies/20 pg input RNA and 0.05 copies/20 pg input RNA and 10.00 copies/20 pg input RNA in the series on Sprague-Dawley rats [8] (Day 3, urine); 0.96 copies/20 pg input RNA and 0.64 copies/20 pg input RNA and 16.88 copies/20 pg input RNA and 51.03 copies/20 pg input RNA and 6.61 copies/20 pg input RNA and 4.90 copies/20 pg input RNA and 58.70 copies/20 pg input RNA and 38.01 copies/20 pg input RNA and 25.61 copies/20 pg input RNA with Sprague-Dawley rats [8] (Day 9, urine); 3.5 copies/20 pg input RNA and 9.46 copies/20 pg input RNA and 4.17 copies/20 pg input RNA and 2.13 copies/20 pg input RNA and 4.99 copies/20 pg input RNA and 3.46 copies/20 pg input RNA and 3.86 copies/20 pg input RNA and 23.75 copies/20 pg input RNA and 10.40 copies/20 pg input RNA with Sprague-Dawley rats [8] (Day 12, urine). Besides, in the series on Sprague-Dawley rats [9], the “Kidney Histopathology: Proximal tubule overall tissue injury (highest severity grade measured at Day 12)” value is on record as 5.
